We go through four compounds from patent publication US20160009693A1, “HERBICIDAL COMPOUNDS” (SYNGENTA LIMITED, priority 2013, published 2016).

Holding throughout (type): in vivo
Common to all, as to conditions: applied at 1000 g/h, evaluated after 13 days

The test system of assay [1] is Solanum nigrum (SOLNI). The assay can be described thus: Herbicidal glasshouse test, pre-emergence, SOLNI. Summed up: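 Seeds of Solanum nigrum were sown in pots of standard soil and kept one day in a glasshouse at 24/16° C. day/night, 14 hours light and 65% humidity. For the pre-emergence treatment they were then sprayed with an aqueous solution of the active ingredient formulated in acetone/water (50:50) containing 0.5% Tween 20. Plant damage was rated after 13 days.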

For assay [2], the system named is Setaria faberi (SETFA). Kind of assay: Herbicidal glasshouse test, pre-emergence, SETFA.
Assay [3] has as its system Alopecurus myosuroides (ALOMY). The assay can be described thus: Herbicidal glasshouse test, pre-emergence, ALOMY.
In assay [4] the test system is Ipomoea hederacea (IPOHE). Kind of assay: Herbicidal glasshouse test, pre-emergence, IPOHE.
In assay [5] the test system is Amaranthus retoflexus (AMARE). The assay can be described thus: Herbicidal glasshouse test, post-emergence, AMARE. A digest of the protocol: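 Amaranthus retoflexus (AMARE) seeds were sown in pots of standard soil and grown in a glasshouse at 24/16° C. day/night, 14 hours light and 65% humidity for 8 days. The plants were then sprayed post-emergence with an aqueous solution of the active ingredient in acetone/water (50:50) with 0.5% Tween 20. Damage was scored after 13 days.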

Assay [6] concerns Echinochloa crus-galli (ECHCG). Kind of assay: Herbicidal glasshouse test, post-emergence, ECHCG. Summed up:
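Echinochloa crus-galli (ECHCG) seeds were sown in standard soil in pots and grown for 8 days in a glasshouse at 24/16° C. day/night, 14 hours light and 65% humidity. The young plants were then sprayed post-emergence with the active ingredient in acetone / water (50:50) containing 0.5% Tween 20. Damage was scored after 13 days.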

In assay [7] the test system is Ipomoea hederacea (IPOHE). Kind of assay: Herbicidal glasshouse test, post-emergence, IPOHE.
For assay [8], the system named is Alopecurus myosuroides (ALOMY). The assay can be described thus: Herbicidal glasshouse test, post-emergence, ALOMY.
For assay [9], the system named is Solanum nigrum (SOLNI). Kind of assay: Herbicidal glasshouse test, post-emergence, SOLNI.
Assay [10] deals with Setaria faberi (SETFA). The assay can be described thus: Herbicidal glasshouse test, post-emergence, SETFA. Summed up: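 Setaria faberi seeds were sown in standard soil in pots and grown for 8 days in a glasshouse at 24/16° C. day/night, 14 hours light and 65% humidity. The seedlings were then sprayed post-emergence with the active ingredient in acetone/water (50:50) containing 0.5% Tween 20. Afterwards they were kept under the same conditions, watered twice daily, and scored for percentage damage on a five point scale.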

For assay [11], the system named is Amaranthus retoflexus (AMARE). The assay can be described thus: Herbicidal glasshouse test, pre-emergence, AMARE. A digest of the protocol: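 Amaranthus retoflexus seeds were sown in pots of standard soil and kept one day in a glasshouse at 24/16° C. (day/night), 14 hours light and 65% humidity. They were then sprayed pre-emergence with the active ingredient in acetone/water (50:50) containing 0.5% Tween 20. Plants grew under the same conditions, watered twice daily, and percentage damage was scored after 13 days.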

In assay [12] the test system is Echinochloa crus-galli (ECHCG). The assay can be described thus: Herbicidal glasshouse test, pre-emergence, ECHCG. Summed up: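 Echinochloa crus-galli seeds were sown in standard soil in pots and grown for one day in a glasshouse at 24/16° C. day/night, 14 hours light and 65% humidity. Pre-emergence spraying used an aqueous solution of the active ingredient in acetone/water (50:50) with 0.5% Tween 20. Damage was scored after 13 days on a five point scale.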

Turning to `Cn1nnnc1NC(=O)c1nn(C)c(=O)n(Cc2ccccc2Br)c1=O` [Compound 1.082], the “PRE Application SOLNI, percentage damage (five point scale)” value (“PRE Application SOLNI, percentage damage” below) in the assay on Solanum nigrum (SOLNI) [1] was 5 (5=80-100%). Further, in the assay on Setaria faberi (SETFA) [2], the “PRE Application SETFA, percentage damage (five point scale)” value (from here on “PRE Application SETFA, percentage damage”) was 3 (3=40-59%). Besides, in assay [3], the “PRE Application ALOMY, percentage damage (five point scale)” value (shortened to “PRE Application ALOMY, percentage damage”) was 5 (5=80-100%). In addition, in assay [4], the “PRE Application IPOHE, percentage damage (five point scale)” value (“PRE Application IPOHE, percentage damage” below) is 5 (5=80-100%). Besides, the “POST Application AMARE, percentage damage (five point scale)” value in [5] is 5 (5=80-100%). Further, the “POST Application ECHCG, percentage damage (five point scale)” value in assay [6] was 5 (5=80-100%). Besides, the “POST Application IPOHE, percentage damage (five point scale)” value in assay [7] is recorded as 5 (5=80-100%). In addition, the “POST Application ALOMY, percentage damage (five point scale)” value in assay [8] is listed as 5 (5=80-100%). Moreover, the “POST Application SOLNI, percentage damage (five point scale)” value in the assay with Solanum nigrum (SOLNI) [9] is on record as 5 (5=80-100%). Also, in the assay with Setaria faberi (SETFA) [10], the “POST Application SETFA, percentage damage (five point scale)” value was 2 (2=20-39%). Further, the “PRE Application AMARE, percentage damage (five point scale)” value (from here on “PRE Application AMARE, percentage damage”) in assay [11] is listed as 5 (5=80-100%). Further, the “PRE Application ECHCG, percentage damage (five point scale)” value (shortened to “PRE Application ECHCG, percentage damage”) in assay [12] is reported as 5 (5=80-100%).
In the case of `Cn1ncnc1OC(=O)c1cn(C)c(=O)n(-c2cccc(F)c2)c1=O` [Compound 2.001], the “PRE Application SOLNI, percentage damage” value in the assay with Solanum nigrum (SOLNI) [1] is 1 (1=0-19%). Besides, in the assay on Setaria faberi (SETFA) [2], the “PRE Application SETFA, percentage damage” value is recorded as 1 (1=0-19%). Moreover, the “PRE Application ALOMY, percentage damage” value in assay [3] is reported as 1 (1=0-19%). Also, the “PRE Application IPOHE, percentage damage” value in [4] is 1 (1=0-19%). Also, in assay [5], the “POST Application AMARE, percentage damage (five point scale)” value is 4 (4=60-79%). The “POST Application ECHCG, percentage damage (five point scale)” value in [6] is 1 (1=0-19%). In assay [7], the “POST Application IPOHE, percentage damage (five point scale)” value is 1 (1=0-19%). In addition, in assay [8], the “POST Application ALOMY, percentage damage (five point scale)” value is reported as 1 (1=0-19%). Further, the “POST Application SOLNI, percentage damage (five point scale)” value with Solanum nigrum (SOLNI) [9] is recorded as 4 (4=60-79%). Besides, the “POST Application SETFA, percentage damage (five point scale)” value in the assay with Setaria faberi (SETFA) [10] is 1 (1=0-19%). The “PRE Application AMARE, percentage damage” value in assay [11] is on record as 1 (1=0-19%). Besides, the “PRE Application ECHCG, percentage damage” value in [12] is reported as 1 (1=0-19%).
As for `Cn1nnnc1NC(=O)c1nn(C)c(=O)n(Cc2ccc(C#N)cc2)c1=O` [Compound 1.050], the “PRE Application SOLNI, percentage damage” value with Solanum nigrum (SOLNI) [1] is 5 (5=80-100%). Moreover, in the assay with Setaria faberi (SETFA) [2], the “PRE Application SETFA, percentage damage” value is 2 (2=20-39%). The “PRE Application ALOMY, percentage damage” value in [3] is listed as 5 (5=80-100%). Besides, the “PRE Application IPOHE, percentage damage” value in [4] was 5 (5=80-100%). For the same compound, in assay [5], the “POST Application AMARE, percentage damage (five point scale)” value is given as 5 (5=80-100%). In addition, the “POST Application ECHCG, percentage damage (five point scale)” value in assay [6] was 5 (5=80-100%). Moreover, the “POST Application IPOHE, percentage damage (five point scale)” value in assay [7] is recorded as 5 (5=80-100%). Moreover, the “POST Application ALOMY, percentage damage (five point scale)” value in assay [8] is 5 (5=80-100%). In the assay with Solanum nigrum (SOLNI) [9], the “POST Application SOLNI, percentage damage (five point scale)” value is reported as 5 (5=80-100%). Moreover, the “POST Application SETFA, percentage damage (five point scale)” value in the assay with Setaria faberi (SETFA) [10] is 1 (1=0-19%). Besides, the “PRE Application AMARE, percentage damage” value in [11] is recorded as 5 (5=80-100%). Further, the “PRE Application ECHCG, percentage damage” value in assay [12] is 5 (5=80-100%).
As for `Cn1nnnc1NC(=O)c1nn(C)c(=O)n(-c2ccc(F)c(Cl)c2)c1=O` [Compound 1.008], the “PRE Application SOLNI, percentage damage” value in the assay with Solanum nigrum (SOLNI) [1] is 5 (5=80-100%). In addition, in the assay on Setaria faberi (SETFA) [2], the “PRE Application SETFA, percentage damage” value was 5 (5=80-100%). For the same compound, in assay [3], the “PRE Application ALOMY, percentage damage” value is given as 5 (5=80-100%). In assay [4], the “PRE Application IPOHE, percentage damage” value is listed as 5 (5=80-100%). Besides, the “POST Application AMARE, percentage damage (five point scale)” value in [5] is given as 5 (5=80-100%). In assay [6], the “POST Application ECHCG, percentage damage (five point scale)” value is 5 (5=80-100%). The “POST Application IPOHE, percentage damage (five point scale)” value in assay [7] was 5 (5=80-100%). In addition, in [8], the “POST Application ALOMY, percentage damage (five point scale)” value was 5 (5=80-100%). The “POST Application SOLNI, percentage damage (five point scale)” value in the assay with Solanum nigrum (SOLNI) [9] is given as 5 (5=80-100%). In addition, the “POST Application SETFA, percentage damage (five point scale)” value in the assay with Setaria faberi (SETFA) [10] is on record as 5 (5=80-100%). Besides, the “PRE Application AMARE, percentage damage” value in assay [11] was 5 (5=80-100%). Besides, the “PRE Application ECHCG, percentage damage” value in [12] was 5 (5=80-100%).
